target: Factor D (Homo sapiens, UniProt P00746); assay: Factor D esterolytic assay (Z-Lys-SBzl thioester substrate, DTNB, 405 nm); type: biochemical; conditions: substrate Z-Lys-SBzl 1.29 mM, 100 mM HEPES, 500 mM NaCl, pH 7.5, 10% DMSO, tested a minimum of three times
Outline: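 Human Factor D hydrolysis of Z-Lys-SBzl (1.29 mM) monitored at 405 nm via DTNB thiol detection for 600 s, 690 nm background subtracted. Buffer 100 mM HEPES, 500 mM NaCl, pH 7.5, 10% DMSO; substrate added immediately or after room-temperature preincubation. IC50 from percent inhibition of rate, at least three tests.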

Chain of Factor D (P00746 26-253): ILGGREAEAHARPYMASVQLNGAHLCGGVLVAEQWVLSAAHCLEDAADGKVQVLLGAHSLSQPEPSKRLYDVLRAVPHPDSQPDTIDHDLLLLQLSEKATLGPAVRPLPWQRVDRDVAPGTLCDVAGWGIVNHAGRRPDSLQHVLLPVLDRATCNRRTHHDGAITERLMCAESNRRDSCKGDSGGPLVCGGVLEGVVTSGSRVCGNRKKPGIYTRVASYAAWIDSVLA

**Q.** `Cc1cc(F)c(Br)nc1NC(=O)[C@@H]1C[C@H]2C[C@H]2N1C(=O)Cn1c2ncnc(N)c2c2cc(C(F)(F)F)cc(C)c21` [Compound 322c, (1R,3S,5R)-2-(2-(4-amino-8-methyl-6-(trifluoromethyl)-9H-pyrimido[4,5-b]indol-9-yl)acetyl)-N-(6-bromo-5-fluoro-3-methylpyridin-2-yl)-2-azabicyclo[3.1.0]hexane-3-carboxamide] was tested. Which IC50 did it give?
**A.** < 100 nM

**Q.** With `Cc1ccc(Br)nc1NC(=O)[C@@H]1C[C@@](C)(F)CN1C(=O)Cn1c2ncnc(N)c2c2cc(C(F)(F)F)cc(C)c21` [Compound 323a, (2S,4R)-1-(2-(4-amino-8-methyl-6-(trifluoromethyl)-9H-pyrimido[4,5-b]indol-9-yl)acetyl)-N-(6-bromo-3-methylpyridin-2-yl)-4-fluoro-4-methylpyrrolidine-2-carboxamide] as the molecule, how does the IC50 read?
**A.** < 100 nM

**Q.** Which IC50 does the source give for `Cc1cc(C(F)(F)F)cc2c3c(N)ncnc3n(CC(=O)N3CCS[C@H]3C(=O)Nc3cccc(Br)n3)c12` [Compound 324a, (S)-3-(2-(4-amino-8-methyl-6-(trifluoromethyl)-9H-pyrimido[4,5-b]indol-9-yl)acetyl)-N-(6-bromopyridin-2-yl)thiazolidine-2-carboxamide] here?
**A.** < 100 nM

**Q.** With `Cc1cc(C(F)(F)F)cc2c3c(N)ncnc3n(CC(=O)N3C[C@H](F)C[C@H]3C(=O)Nc3cncc(Cl)n3)c12` [Compound 325c, (2S,4R)-1-(2-(4-amino-8-methyl-6-(trifluoromethyl)-9H-pyrimido[4,5-b]indol-9-yl)acetyl)-N-(6-chloropyrazin-2-yl)-4-fluoropyrrolidine-2-carboxamide] as the molecule, how does the IC50 read?
**A.** < 100 nM

**Q.** For `Cc1cc(C(F)(F)F)cc2c3c(N)ncnc3n(CC(=O)N3[C@@H]4C[C@@H]4C[C@H]3C(=O)Nc3cncc(Cl)n3)c12` [Compound 326c, (1R,3S,5R)-2-(2-(4-amino-8-methyl-6-(trifluoromethyl)-9H-pyrimido[4,5-b]indol-9-yl)acetyl)-N-(6-chloropyrazin-2-yl)-2-azabicyclo[3.1.0]hexane-3-carboxamide], which IC50 is on record?
**A.** < 100 nM

**Q.** Which IC50 does the source give for `Cc1cc(C(F)(F)F)cc2c3c(N)ncnc3n(CC(=O)N3[C@H](C(=O)Nc4cncc(Cl)n4)C[C@@]4(C)C[C@@H]34)c12` [Compound 327c, (1R,3S,5R)-2-(2-(4-amino-8-methyl-6-(trifluoromethyl)-9H-pyrimido[4,5-b]indol-9-yl)acetyl)-N-(6-chloropyrazin-2-yl)-5-methyl-2-azabicyclo[3.1.0]hexane-3-carboxamide] here?
**A.** < 100 nM

**Q.** How did the IC50 turn out when `COc1cc2c(cc1C)c1c(N)ncnc1n2CC(=O)N1[C@@H]2C[C@@H]2C[C@H]1C(=O)Nc1cccc(Br)n1` [Compound 328f, (1R,3S,5R)-2-(2-(4-amino-7-methoxy-6-methyl-9H-pyrimido[4,5-b]indol-9-yl)acetyl)-N-(6-bromopyridin-2-yl)-2-azabicyclo[3.1.0]hexane-3-carboxamide] was run?
**A.** < 100 nM

**Q.** `COc1cc2c(cc1C)c1c(N)ncnc1n2CC(=O)N1[C@H](C(=O)Nc2cccc(Br)n2)C[C@@]2(C)C[C@@H]12` [Compound 329a, (1R,3S,5R)-2-(2-(4-amino-7-methoxy-6-methyl-9H-pyrimido[4,5-b]indol-9-yl)acetyl)-N-(6-bromopyridin-2-yl)-5-methyl-2-azabicyclo[3.1.0]hexane-3-carboxamide] was tested. Which IC50 did it give?
**A.** < 100 nM

**Q.** Which IC50 does the source give for `COc1cc2c3c(N)ncnc3n(CC(=O)N3[C@@H]4C[C@@H]4C[C@H]3C(=O)Nc3cccc(Br)n3)c2cc1F` [Compound 330f, (1R,3S,5R)-2-(2-(4-amino-7-fluoro-6-methoxy-9H-pyrimido[4,5-b]indol-9-yl)acetyl)-N-(6-bromopyridin-2-yl)-2-azabicyclo[3.1.0]hexane-3-carboxamide] here?
**A.** < 100 nM

**Q.** `COc1cc2c3c(N)ncnc3n(CC(=O)N3[C@H](C(=O)Nc4cccc(Br)n4)C[C@@]4(C)C[C@@H]34)c2cc1F` [Compound 331a, (1R,3S,5R)-2-(2-(4-amino-7-fluoro-6-methoxy-9H-pyrimido[4,5-b]indol-9-yl)acetyl)-N-(6-bromopyridin-2-yl)-5-methyl-2-azabicyclo[3.1.0]hexane-3-carboxamide] was tested. Which IC50 did it give?
**A.** < 100 nM

**Q.** For `Cc1ccc(Cl)nc1NC(=O)[C@@H]1C[C@@]2(C)C[C@H]2N1C(=O)Cn1c2ncnc(N)c2c2cc(C(F)(F)F)cc(C)c21` [Compound 332c, (1R,3S,5R)-2-(2-(4-amino-8-methyl-6-(trifluoromethyl)-9H-pyrimido[4,5-b]indol-9-yl)acetyl)-N-(6-chloro-3-methylpyridin-2-yl)-5-methyl-2-azabicyclo[3.1.0]hexane-3-carboxamide], which IC50 is on record?
**A.** < 100 nM

**Q.** Which IC50 does the source give for `Cc1cc(F)c(Br)nc1NC(=O)[C@@H]1C[C@@]2(C)C[C@H]2N1C(=O)Cn1c2ncnc(N)c2c2cc(C(F)(F)F)cc(C)c21` [Compound 333c, (1R,3S,5R)-2-(2-(4-amino-8-methyl-6-(trifluoromethyl)-9H-pyrimido[4,5-b]indol-9-yl)acetyl)-N-(6-bromo-5-fluoro-3-methylpyridin-2-yl)-5-methyl-2-azabicyclo[3.1.0]hexane-3-carboxamide] here?
**A.** < 100 nM

**Q.** How did the IC50 turn out when `C[C@@]12C[C@@H](C(=O)Nc3cccc(Br)n3)N(C(=O)Cn3c4ccc(OC(F)(F)F)cc4c4c(N)ncnc43)[C@@H]1C2` [Compound 334a, (1R,3S,5R)-2-(2-(4-amino-6-(trifluoromethoxy)-9H-pyrimido[4,5-b]indol-9-yl)acetyl)-N-(6-bromopyridin-2-yl)-5-methyl-2-azabicyclo[3.1.0]hexane-3-carboxamide] was run?
**A.** < 100 nM

**Q.** `Nc1ncnc2c1c1cc(-c3ccc(F)cc3)ccc1n2CC(=O)N1[C@@H]2C[C@@H]2C[C@H]1C(=O)Nc1cccc(Br)n1` [Compound 335c, (1R,3S,5R)-2-(2-(4-amino-6-(4-fluorophenyl)-9H-pyrimido[4,5-b]indol-9-yl)acetyl)-N-(6-bromopyridin-2-yl)-2-azabicyclo[3.1.0]hexane-3-carboxamide] was tested. Which IC50 did it give?
**A.** < 100 nM

**Q.** For `C[C@@]12C[C@@H](C(=O)Nc3cccc(Br)n3)N(C(=O)Cn3c4ccc(-c5ccco5)cc4c4c(N)ncnc43)[C@@H]1C2` [Compound 336c, (1R,3S,5R)-2-(2-(4-amino-6-(furan-2-yl)-9H-pyrimido[4,5-b]indol-9-yl)acetyl)-N-(6-bromopyridin-2-yl)-5-methyl-2-azabicyclo[3.1.0]hexane-3-carboxamide], which IC50 is on record?
**A.** < 100 nM

**Q.** `C[C@@]12C[C@@H](C(=O)Nc3cccc(Br)n3)N(C(=O)Cn3c4ccc(-c5ccc(F)cc5)cc4c4c(N)ncnc43)[C@@H]1C2` [Compound 337a, (1R,3S,5R)-2-(2-(4-amino-6-(4-fluorophenyl)-9H-pyrimido[4,5-b]indol-9-yl)acetyl)-N-(6-bromopyridin-2-yl)-5-methyl-2-azabicyclo[3.1.0]hexane-3-carboxamide] was tested. Which IC50 did it give?
**A.** < 100 nM

**Q.** With `C[C@@]12C[C@@H](C(=O)Nc3cccc(Br)n3)N(C(=O)Cn3c4ccc(C5CCCC5)cc4c4c(N)ncnc43)[C@@H]1C2` [Compound 338e, (1R,3S,5R)-2-(2-(4-amino-6-cyclopentyl-9H-pyrimido[4,5-b]indol-9-yl)acetyl)-N-(6-bromopyridin-2-yl)-5-methyl-2-azabicyclo[3.1.0]hexane-3-carboxamide] as the molecule, how does the IC50 read?
**A.** < 100 nM

**Q.** With `COCc1ccc2c(c1)c1c(N)ncnc1n2CC(=O)N1[C@@H]2C[C@@H]2C[C@H]1C(=O)Nc1cccc(Br)n1` [Compound 339g, (1R,3S,5R)-2-(2-(4-amino-6-(methoxymethyl)-9H-pyrimido[4,5-b]indol-9-yl)acetyl)-N-(6-bromopyridin-2-yl)-2-azabicyclo[3.1.0]hexane-3-carboxamide] as the molecule, how does the IC50 read?
**A.** < 100 nM

— patent publication US12679843B2, “Pyrrolopyrimidine amines as complement inhibitors” (BioCryst Pharmaceuticals, Inc., priority 2020, dated 2026)
